biological target: T1, PLK4 (Homo sapiens, UniProt O00444); test: PLK4 NanoBRET target engagement assay; type: binding; settings: HEK293 T cells transfected with PLK4 NanoLuc fusion vector; K-5 tracer; 2 hrs incubation
T1 construct: expressed in transfected cells; host or cells: HEK293 T cells (ATCC CRL-3216)
T1 sequence (O00444 1-970): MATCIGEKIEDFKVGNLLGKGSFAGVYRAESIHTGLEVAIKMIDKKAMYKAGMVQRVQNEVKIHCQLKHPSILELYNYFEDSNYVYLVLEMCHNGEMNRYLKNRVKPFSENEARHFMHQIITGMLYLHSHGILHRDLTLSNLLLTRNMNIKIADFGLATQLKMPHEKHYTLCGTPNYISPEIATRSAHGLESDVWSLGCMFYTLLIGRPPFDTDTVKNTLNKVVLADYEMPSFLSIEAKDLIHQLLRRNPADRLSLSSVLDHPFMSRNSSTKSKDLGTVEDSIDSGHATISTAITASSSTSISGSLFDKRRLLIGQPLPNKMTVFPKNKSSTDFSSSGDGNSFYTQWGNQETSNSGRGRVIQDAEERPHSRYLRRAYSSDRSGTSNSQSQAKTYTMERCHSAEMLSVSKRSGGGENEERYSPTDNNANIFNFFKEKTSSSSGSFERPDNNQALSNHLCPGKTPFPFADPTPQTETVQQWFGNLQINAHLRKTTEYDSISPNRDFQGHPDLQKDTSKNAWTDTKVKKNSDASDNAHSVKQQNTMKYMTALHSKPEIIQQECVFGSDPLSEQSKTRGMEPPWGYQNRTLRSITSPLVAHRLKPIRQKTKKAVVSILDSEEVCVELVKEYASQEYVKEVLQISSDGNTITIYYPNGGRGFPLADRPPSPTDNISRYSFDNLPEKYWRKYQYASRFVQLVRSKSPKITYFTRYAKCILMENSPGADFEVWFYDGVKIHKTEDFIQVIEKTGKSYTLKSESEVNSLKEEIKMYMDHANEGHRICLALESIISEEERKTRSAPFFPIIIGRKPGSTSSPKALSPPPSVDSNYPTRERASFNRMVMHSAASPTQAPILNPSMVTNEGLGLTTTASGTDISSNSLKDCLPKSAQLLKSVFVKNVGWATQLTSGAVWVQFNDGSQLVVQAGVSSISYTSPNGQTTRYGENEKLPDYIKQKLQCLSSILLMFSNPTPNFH
In short: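 HEK293T cells transiently expressing PLK4-NanoLuc, plated at 17000 cells/well with K-5 tracer and compound, incubated 2 h at 37 °C/5% CO2. After substrate/inhibitor mix, 610/450 nm emission ratio ×1000 gave mBRET; IC50 from 4-parameter fit.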

| IC50 [nM] | Structure (SMILES) |
| --- | --- |
| 260 | Cc1cc(Nc2nc(N(C)c3c(F)cc(C(=O)N4CCOCC4)cc3F)nc(-c3cn(C)cn3)c2C2CC2)n[nH]1 [Compound 356] |
| 300 | Cc1cc(Nc2nc(N(C)c3c(F)cc(N4CCS(=O)(=O)CC4)cc3F)nc(-c3cn(C)cn3)c2C2CC2)n[nH]1 [Compound 357] |
| 27 | Cc1cc(Nc2nc(N(C)c3c(F)cc(C4(C(N)=O)CC4)cc3F)nc(-c3cn(C)cn3)c2C2CC2)n[nH]1 [Compound 358] |
| 65 | Cc1cc(Nc2nc(N(C)c3c(F)cc(C(=O)N4CCC4)cc3F)nc(-c3cn(C)cn3)c2C2CC2)n[nH]1 [Compound 359] |
| 10 | Cc1cc(Nc2nc(N(C)c3c(F)cc([N+](=O)[O-])cc3F)nc(-c3cn(C)cn3)c2C2CC2)n[nH]1 [Compound 360] |
| > 5000 | Cc1cc(Nc2nc(N(C)c3c(F)cc(CC(=O)N(C)C)cc3F)nc(-c3cn(C)cn3)c2C2CC2)n[nH]1 [Compound 361] |
| 4 | Cc1cc(Nc2nc(N(C)c3c(F)cc(C4(C#N)CC4)cc3F)nc(-c3cn(C)cn3)c2C2CC2)n[nH]1 [Compound 362] |
| > 5000 | Cc1cc(Nc2nc(N(C)c3c(F)cc(CC(=O)N4CCC4)cc3F)nc(-c3cn(C)cn3)c2C2CC2)n[nH]1 [Compound 363] |
| > 5000 | Cc1cc(Nc2nc(N(C)c3c(F)cc(CC(=O)N4CCOCC4)cc3F)nc(-c3cn(C)cn3)c2C2CC2)n[nH]1 [Compound 364] |
| 4 | Cc1cc(Nc2nc(N(C)c3c(F)cc(S(C)(=O)=O)cc3F)nc(-c3cn(C4CC(O)C4)nc3C)c2C2CC2)n[nH]1 (stereo not shown) [Compound 365] |

The remaining lines, values behind:

| Structure (SMILES) | IC50 [nM] |
| --- | --- |
| Cc1cc(Nc2nc(N(C)c3c(F)cc(Br)cc3F)nc(-c3cn(C)cn3)c2C2CC2)n[nH]1 [Compound 335] | 43 |
| Cc1cc(Nc2nc(N(C)c3c(F)cc(S(C)(=O)=O)cc3F)nc(-c3cnn(CC(C)(C)O)c3C)c2C2CC2)n[nH]1 [Compound 336] | 8 |
| Cc1cc(Nc2nc(N(C)c3c(F)cc(Cl)cc3F)nc(-c3cn(C)cn3)c2C2CC2)n[nH]1 [Compound 337] | 62 |
| COc1cc(F)c(N(C)c2nc(Nc3cc(C)[nH]n3)c(C3CC3)c(-c3cn(C)cn3)n2)c(F)c1 [Compound 338] | 77 |
| Cc1cc(Nc2nc(N(C)c3c(F)cc(C#N)cc3F)nc(-c3cn(C)cn3)c2C2CC2)n[nH]1 [Compound 339] | 24 |
| Cc1cc(Nc2nc(N(C)c3c(F)cc(S(C)(=O)=O)cc3F)nc(-c3cc(CC#N)n(C)n3)c2C2CC2)n[nH]1 [Compound 340] | 4 |
| COCc1cc(Nc2nc(N(C)c3c(F)cc(S(C)(=O)=O)cc3F)nc(-c3cnn(C)c3)c2C2CC2)n[nH]1 [Compound 341] | 420 |
| Cc1cc(Nc2nc(N(C)c3c(F)cc(S(C)(=O)=O)cc3F)nc(-c3cnn(C)c3N3CCOC3=O)c2C2CC2)n[nH]1 [Compound 342] | 4 |
| Cc1cc(Nc2nc(N(C)c3c(F)cc(C4CC4)cc3F)nc(-c3cn(C)cn3)c2C2CC2)n[nH]1 [Compound 343] | 26 |
| Cc1cc(Nc2nc(N(C)c3ccc(S(C)(=O)=O)cc3F)nc(-c3cnn(C)c3)c2OC2CC2)n[nH]1 [Compound 344, 5-cyclopropoxy-N^2-(2-fluoro-4-(methylsulfonyl)phenyl)-N^2-methyl-N^4-(5-methyl-1H-pyrazol-3-yl)-6-(1-methyl-1H-pyrazol-4-yl)pyrimidine-2,4-diamine] | 73 |
| CC#Cc1cc(Nc2nc(N(C)c3c(F)cc(S(C)(=O)=O)cc3F)nc(-c3cnn(C)c3)c2C2CC2)n[nH]1 [Compound 345] | 33 |
| Cc1cc(Nc2nc(N(C)c3c(F)cc(S(C)(=O)=O)cc3F)nc(N3CCC[C@@H]3C(N)=O)c2C2CC2)n[nH]1 [Compound 346] | 12 |
| Cc1cc(Nc2nc(N(C)c3c(F)cc(S(=O)(=O)C4CC4)cc3F)nc(-c3cn(C)cn3)c2C2CC2)n[nH]1 [Compound 347] | 5 |
| Cc1cc(Nc2nc(N(C)c3c(F)cc(-c4ccc(=O)n(C)c4)cc3F)nc(-c3cn(C)cn3)c2C2CC2)n[nH]1 [Compound 348] | 46 |
| CC(=O)N1CCC(c2cc(F)c(N(C)c3nc(Nc4cc(C)[nH]n4)c(C4CC4)c(-c4cn(C)cn4)n3)c(F)c2)CC1 [Compound 349] | 46 |
| Cc1cc(Nc2nc(N(C)c3c(F)cc(C4CCOCC4)cc3F)nc(-c3cn(C)cn3)c2C2CC2)n[nH]1 [Compound 350] | 31 |
| Cc1cc(Nc2nc(N(C)c3c(F)cc(B(O)O)cc3F)nc(-c3cn(C)cn3)c2C2CC2)n[nH]1 [Compound 351] | 52 |
| Cc1cc(Nc2nc(N(C)c3c(F)cc(S(C)(=O)=O)cc3F)nc(-c3cn[nH]c3C(C)C)c2C2CC2)n[nH]1 [Compound 352] | 3 |
| Cc1cc(Nc2nc(N(C)c3c(F)cc(N4CCOC4=O)cc3F)nc(-c3cn(C)cn3)c2C2CC2)n[nH]1 [Compound 353] | 6 |
| Cc1cc(Nc2nc(N(C)c3c(F)cc(C(N)=O)cc3F)nc(-c3cn(C)cn3)c2C2CC2)n[nH]1 [Compound 354] | 17 |
| Cc1cc(Nc2nc(N(C)c3c(F)cc(C(=O)N(C)C)cc3F)nc(-c3cn(C)cn3)c2C2CC2)n[nH]1 [Compound 355] | 190 |

Reference: patent US20250177396A1, “POLO-LIKE KINASE 4 (PLK4) INHIBITORS, PHARMACEUTICAL COMPOSITIONS, METHODS OF PREPARATION AND USES THEREOF” (Repare Therapeutics Inc., priority 2022, published 2025)
